{
  "source": "patent US8247441B2",
  "about": "“Chromene compounds, a process for their preparation and pharmaceutical compositions containing them” (Les Laboratoires Servier, priority 2009, dated 2012)",
  "key": {"[1]": {"target": "human D2L dopaminergic receptor (Homo sapiens, UniProt P14416)", "sequence (P14416 whole entry)": "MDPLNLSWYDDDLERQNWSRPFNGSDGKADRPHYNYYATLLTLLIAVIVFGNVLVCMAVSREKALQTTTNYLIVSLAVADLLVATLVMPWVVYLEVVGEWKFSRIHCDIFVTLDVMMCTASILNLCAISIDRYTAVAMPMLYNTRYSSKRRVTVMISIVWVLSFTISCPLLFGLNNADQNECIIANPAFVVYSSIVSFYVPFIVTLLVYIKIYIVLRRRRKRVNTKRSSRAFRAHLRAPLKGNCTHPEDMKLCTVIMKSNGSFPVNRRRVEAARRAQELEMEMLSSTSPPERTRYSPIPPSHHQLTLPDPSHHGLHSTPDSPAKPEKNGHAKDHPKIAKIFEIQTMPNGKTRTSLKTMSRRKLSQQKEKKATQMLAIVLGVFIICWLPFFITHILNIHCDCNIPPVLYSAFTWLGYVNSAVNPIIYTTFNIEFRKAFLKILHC", "test": "Affinity for human D2L receptors stably expressed in CHO cells, [3H]-spiperone competition", "type": "binding", "settings": "CHO cell membranes, 0.5 nM [3H]-spiperone, 1 hour at 30° C.; read-out: Affinity (pKi) hD2L (converted)", "experimental": "(§1) Determination of Affinity for Human D3, D2S and D2L Receptors Stably Expressed in CHO Cells\n(§2) The various cell lines are cultured to confluence and then the cells are detached and are homogenised using a Polytron in a Tris-HCl buffer (50 mM, pH 7.4) containing 5 mM MgCl2. The cell debris is then centrifuged (15 minutes at 4° C.) and the sediment is taken up in an appropriate volume of HEPES buffer (20 mM) containing 150 mM NaCl and is frozen at −80° C. On the day of the experiment, the membranes are taken up in incubation buffer containing 50 mM Tris (pH 7.4), 120 mM NaCl, 5 mM KCl, 2 mM CaCl2 and 5 mM MgCl2. […] The non-specific binding is determined using 10 μM raclopride. At the end of the incubation period, the samples are filtered through Unifilter GF/B type filters pre-treated with PEI (0.1%) and washed several times with Tris-HCl filtration buffer (50 mM, pH 7.4) containing 120 mM NaCl. The radioactivity retained on the filters is counted after addition of scintillation liquid, with the aid of a scintillation counter. […] The results are expressed in terms of pKi=−log Ki."}, "[2]": {"target": "human D2S dopaminergic receptor (Homo sapiens, UniProt P14416)", "sequence (P14416 1-414 isoform P14416-2)": "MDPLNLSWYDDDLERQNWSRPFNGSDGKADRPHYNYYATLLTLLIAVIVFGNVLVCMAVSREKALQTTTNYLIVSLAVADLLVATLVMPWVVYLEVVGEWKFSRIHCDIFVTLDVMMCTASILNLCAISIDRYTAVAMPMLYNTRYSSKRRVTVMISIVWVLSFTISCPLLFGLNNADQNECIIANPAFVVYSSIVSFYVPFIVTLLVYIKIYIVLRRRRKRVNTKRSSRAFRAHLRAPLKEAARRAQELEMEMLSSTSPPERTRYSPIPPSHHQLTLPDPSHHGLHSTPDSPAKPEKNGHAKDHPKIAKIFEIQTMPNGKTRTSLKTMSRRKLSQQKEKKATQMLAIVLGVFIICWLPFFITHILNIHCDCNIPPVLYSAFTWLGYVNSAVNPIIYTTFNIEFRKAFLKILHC", "test": "Affinity for human D2S receptors stably expressed in CHO cells, [3H]-spiperone competition", "type": "binding", "settings": "CHO cell membranes, 0.5 nM [3H]-spiperone, 1 hour at 30° C.; read-out: Affinity (pKi) hD2S (converted)", "experimental": "as §1, §2"}, "[3]": {"tested_on": "D3/D2 receptor", "test": "Inhibition of hypothermia induced by the dopaminergic agonist PD128,907", "type": "in vivo, rat", "settings": "for Δ (° C.) ± S.E.M.s: PD128,907 0.63 mg/kg s.c. at T0, rectal temperature 30 min later vs baseline; for ID50 (Inhibitory Dose50): inhibition of hypothermia induced by PD128,907 0.63 mg/kg s.c.", "experimental": "Inhibition of Induction of Hypothermia Induced by the Dopaminergic Agonist PD128,907\nIn male rats of the Wistar strain, the baseline (rectal) temperature is measured and then the compound under test or the vehicle is administered by the oral route. Sixty minutes later, PD128,907 (0.63 mg/kg, s.c.), a D3/D2 dopaminergic agonist, is injected. Thirty minutes later, the body temperature is re-determined and the difference (Δ) from the baseline temperature is calculated."}, "[4]": {"target": "human D3 dopaminergic receptor (Homo sapiens, UniProt P35462)", "sequence (P35462 whole entry)": "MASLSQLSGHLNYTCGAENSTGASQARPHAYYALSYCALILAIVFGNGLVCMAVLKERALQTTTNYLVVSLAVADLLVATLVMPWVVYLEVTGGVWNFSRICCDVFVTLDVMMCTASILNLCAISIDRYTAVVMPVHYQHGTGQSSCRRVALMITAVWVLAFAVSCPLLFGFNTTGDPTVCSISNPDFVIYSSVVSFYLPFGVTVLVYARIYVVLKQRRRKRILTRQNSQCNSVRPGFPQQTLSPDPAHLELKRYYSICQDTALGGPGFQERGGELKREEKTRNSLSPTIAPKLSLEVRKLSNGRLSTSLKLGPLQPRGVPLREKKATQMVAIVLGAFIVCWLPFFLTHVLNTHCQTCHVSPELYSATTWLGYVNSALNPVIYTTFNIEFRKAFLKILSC", "test": "Affinity for human D3 receptors stably expressed in CHO cells, [3H]-spiperone competition", "type": "binding", "settings": "CHO cell membranes, 0.5 nM [3H]-spiperone, 1 hour at 30° C.; read-out: Affinity (pKi) hD3 (converted)", "experimental": "as §1, §2"}, "[5]": {"settings": "male Wistar rats, compound 0.04 mg/kg p.o. at T-60 min"}, "[6]": {"settings": "male Wistar rats, compound 0.16 mg/kg p.o. at T-60 min"}, "[7]": {"settings": "male Wistar rats, compound 0.63 mg/kg p.o. at T-60 min"}, "[8]": {"settings": "male Wistar rats, compound 2.5 mg/kg p.o. at T-60 min"}, "[9]": {"settings": "male Wistar rats, compound 10.0 mg/kg p.o. at T-60 min"}},
  "data": [
    {"smiles": "CC(=O)N[C@H]1CC[C@H](CCN2C[C@H]3COc4ccc(C#N)cc4[C@@H]3C2)CC1.Cl", "note": "[Example 2, N-(trans-4-{2-[(3aS,9bR)-8-cyano-1,3a,4,9b-tetrahydrochromeno[3,4-c]pyrrol-2(3H)-yl]ethyl}cyclohexyl)acetamide hydrochloride]", "values": [
      {"measurement": "Ki", "setting": "[1]", "value": 100, "unit": "nM"},
      {"measurement": "Ki", "setting": "[2]", "value": 117, "unit": "nM"},
      {"measurement": "Δ (° C.) ± S.E.M.s", "setting": "[3]; [5]", "value": "−1.73 ± 0.26", "unit": "°C"},
      {"measurement": "Δ (° C.) ± S.E.M.s", "setting": "[3]; [6]", "value": "−1.33 ± 0.11", "unit": "°C"},
      {"measurement": "Δ (° C.) ± S.E.M.s", "setting": "[3]; [7]", "value": "−0.97 ± 0.28", "unit": "°C"},
      {"measurement": "Δ (° C.) ± S.E.M.s", "setting": "[3]; [8]", "value": "−0.4 ± 0.13", "unit": "°C"},
      {"measurement": "Δ (° C.) ± S.E.M.s", "setting": "[3]; [9]", "value": "+0.1 ± 0.33 °C"},
      {"measurement": "ID50 (Inhibitory Dose50)", "setting": "[3]; male Wistar rats", "value": "1.33 mg/kg, p.o."},
      {"measurement": "Ki", "setting": "[4]", "value": 2, "unit": "nM"}
    ]},
    {"smiles": "Cl.N#Cc1ccc2c(c1)[C@@H]1CN(CC[C@H]3CC[C@H](NC(=O)C4CCC4)CC3)C[C@H]1CO2", "note": "[Example 3, N-(trans-4-{2-[(3aS,9bR)-8-cyano-1,3a,4,9b-tetrahydrochromeno[3,4-c]pyrrol-2(3H)-yl]ethyl}cyclohexyl)cyclobutanecarboxamide hydrochloride]", "values": [
      {"measurement": "Ki", "setting": "[1]", "value": 50.1, "unit": "nM"},
      {"measurement": "Ki", "setting": "[2]", "value": 56.2, "unit": "nM"},
      {"measurement": "Blocking of PD 128,907-induced hypothermia", "setting": "[3]; male Wistar rats, oral route", "value": "blocked in dose-dependent manner"},
      {"measurement": "Δ (° C.) ± S.E.M.s", "setting": "[3]; [5]", "value": "−1.65 ± 0.09", "unit": "°C"},
      {"measurement": "Δ (° C.) ± S.E.M.s", "setting": "[3]; [6]", "value": "−1.62 ± 0.07", "unit": "°C"},
      {"measurement": "Δ (° C.) ± S.E.M.s", "setting": "[3]; [7]", "value": "−0.83 ± 0.20", "unit": "°C"},
      {"measurement": "Δ (° C.) ± S.E.M.s", "setting": "[3]; [8]", "value": "−0.33 ± 0.16", "unit": "°C"},
      {"measurement": "Δ (° C.) ± S.E.M.s", "setting": "[3]; [9]", "value": "+0.35 ± 0.18 °C"},
      {"measurement": "ID50 (Inhibitory Dose50)", "setting": "[3]; male Wistar rats", "value": "0.64 mg/kg, p.o."},
      {"measurement": "Ki", "setting": "[4]", "value": 1.86, "unit": "nM"}
    ]},
    {"smiles": "CCCN1CCO[C@@H]2c3cc(O)ccc3OC[C@H]21", "note": "[PD128,907, reference compound]", "values": [
      {"measurement": "Effect of PD 128,907 on body temperature", "setting": "[3]; in the presence of the vehicle", "value": "brings about hypothermia"}
    ]}
  ]
}
